Measured values from patent US8022206B2 (OSI Pharmaceuticals, LLC, priority 2008, dated 2011).

Legend:
RON (human) = RON (human) (Homo sapiens, UniProt Q04912); assay: RON (human) AlphaScreen kinase assay, Km of ATP; assay type: biochemical; conditions: AlphaScreen, Km of ATP; read-out: RON biochemical IC50
In short: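 Reaction was started with enzyme and run 30 min at RT. PT66 donor/acceptor beads in an EDTA-containing Tris pH 7.5 buffer were then added, and the signal was read after 1 h.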

MET (human) = MET (human) (Homo sapiens, UniProt P08581); assay: MET (human) AlphaScreen kinase assay, Km of ATP; assay type: biochemical; conditions: AlphaScreen, Km of ATP; read-out: Met biochemical IC50
In short: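 Human MET at lot-optimised concentration in 50 mM Tris pH 7.4 buffer with 1 mM DTT, compound at 1% DMSO final; enzyme starts the reaction, 60 min at RT.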

MET (human), sequence (P08581 25-1390): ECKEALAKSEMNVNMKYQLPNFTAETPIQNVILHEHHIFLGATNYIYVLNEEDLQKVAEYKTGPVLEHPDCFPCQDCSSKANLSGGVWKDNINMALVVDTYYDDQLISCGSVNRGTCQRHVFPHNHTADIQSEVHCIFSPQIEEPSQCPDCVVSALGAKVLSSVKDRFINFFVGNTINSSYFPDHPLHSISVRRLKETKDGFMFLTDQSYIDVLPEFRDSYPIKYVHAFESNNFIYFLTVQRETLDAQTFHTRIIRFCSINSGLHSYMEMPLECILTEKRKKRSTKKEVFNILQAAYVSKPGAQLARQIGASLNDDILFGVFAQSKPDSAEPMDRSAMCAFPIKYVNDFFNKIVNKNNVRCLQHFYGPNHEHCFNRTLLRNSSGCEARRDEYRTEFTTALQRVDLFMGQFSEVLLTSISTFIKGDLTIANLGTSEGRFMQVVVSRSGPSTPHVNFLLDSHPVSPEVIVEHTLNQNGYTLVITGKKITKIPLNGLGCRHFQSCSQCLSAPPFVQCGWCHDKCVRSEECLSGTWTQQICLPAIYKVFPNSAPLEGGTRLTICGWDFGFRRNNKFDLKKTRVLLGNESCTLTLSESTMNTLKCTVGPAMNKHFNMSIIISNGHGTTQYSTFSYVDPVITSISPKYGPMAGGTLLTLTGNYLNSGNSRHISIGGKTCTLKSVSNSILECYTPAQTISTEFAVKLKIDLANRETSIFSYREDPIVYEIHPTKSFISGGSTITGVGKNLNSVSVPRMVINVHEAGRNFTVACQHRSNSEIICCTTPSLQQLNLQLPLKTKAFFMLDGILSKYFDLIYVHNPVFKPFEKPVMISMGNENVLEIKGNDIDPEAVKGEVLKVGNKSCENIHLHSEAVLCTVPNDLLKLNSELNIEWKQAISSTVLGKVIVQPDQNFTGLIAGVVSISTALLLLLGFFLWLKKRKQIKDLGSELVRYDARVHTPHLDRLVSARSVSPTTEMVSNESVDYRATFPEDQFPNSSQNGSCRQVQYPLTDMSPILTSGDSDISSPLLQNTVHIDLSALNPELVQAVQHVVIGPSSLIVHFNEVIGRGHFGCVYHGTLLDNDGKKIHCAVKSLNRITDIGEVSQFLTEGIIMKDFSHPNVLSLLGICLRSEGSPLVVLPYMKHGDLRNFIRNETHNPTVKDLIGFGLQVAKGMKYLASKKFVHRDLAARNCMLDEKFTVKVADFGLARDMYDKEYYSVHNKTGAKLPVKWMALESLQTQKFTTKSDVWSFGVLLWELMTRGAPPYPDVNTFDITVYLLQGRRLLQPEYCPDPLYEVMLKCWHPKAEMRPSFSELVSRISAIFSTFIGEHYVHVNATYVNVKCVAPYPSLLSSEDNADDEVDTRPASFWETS
RON (human), sequence (Q04912 25-1400): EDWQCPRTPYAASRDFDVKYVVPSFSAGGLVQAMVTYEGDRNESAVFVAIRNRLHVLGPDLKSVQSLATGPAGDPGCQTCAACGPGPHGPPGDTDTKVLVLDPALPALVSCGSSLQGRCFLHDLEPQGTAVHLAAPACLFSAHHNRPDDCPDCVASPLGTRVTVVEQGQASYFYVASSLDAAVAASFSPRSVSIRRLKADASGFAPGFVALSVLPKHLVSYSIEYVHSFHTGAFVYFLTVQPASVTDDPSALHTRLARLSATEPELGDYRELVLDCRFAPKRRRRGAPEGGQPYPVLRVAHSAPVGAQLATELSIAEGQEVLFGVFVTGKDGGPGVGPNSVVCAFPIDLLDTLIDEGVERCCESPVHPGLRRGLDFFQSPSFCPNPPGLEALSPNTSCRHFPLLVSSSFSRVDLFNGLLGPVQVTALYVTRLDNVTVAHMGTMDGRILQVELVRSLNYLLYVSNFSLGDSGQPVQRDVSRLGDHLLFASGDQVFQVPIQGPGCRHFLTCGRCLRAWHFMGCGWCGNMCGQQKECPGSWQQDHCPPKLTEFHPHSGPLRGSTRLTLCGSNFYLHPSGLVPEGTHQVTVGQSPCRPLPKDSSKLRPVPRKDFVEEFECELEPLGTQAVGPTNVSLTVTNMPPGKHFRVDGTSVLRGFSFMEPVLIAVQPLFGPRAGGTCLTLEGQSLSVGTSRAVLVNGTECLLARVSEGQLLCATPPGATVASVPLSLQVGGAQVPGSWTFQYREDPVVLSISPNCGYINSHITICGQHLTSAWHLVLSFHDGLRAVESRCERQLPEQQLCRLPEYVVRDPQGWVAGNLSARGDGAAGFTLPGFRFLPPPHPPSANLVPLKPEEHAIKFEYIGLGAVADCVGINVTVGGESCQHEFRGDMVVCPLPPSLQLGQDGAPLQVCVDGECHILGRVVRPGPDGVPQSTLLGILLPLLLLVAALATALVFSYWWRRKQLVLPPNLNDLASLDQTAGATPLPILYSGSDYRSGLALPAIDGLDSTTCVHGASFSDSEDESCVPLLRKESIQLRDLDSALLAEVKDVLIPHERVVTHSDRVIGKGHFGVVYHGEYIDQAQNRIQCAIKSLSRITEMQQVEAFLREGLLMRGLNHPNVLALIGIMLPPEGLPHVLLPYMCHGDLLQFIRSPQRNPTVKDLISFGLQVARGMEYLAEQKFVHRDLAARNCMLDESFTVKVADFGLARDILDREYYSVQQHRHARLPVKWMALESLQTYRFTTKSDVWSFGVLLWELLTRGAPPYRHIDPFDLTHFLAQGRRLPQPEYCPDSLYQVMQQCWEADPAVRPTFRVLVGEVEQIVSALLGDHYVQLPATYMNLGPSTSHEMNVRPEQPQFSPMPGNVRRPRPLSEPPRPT

| Structure (SMILES) | IC50 (RON (human)) [nM] | IC50 (MET (human)) [nM] |
| --- | --- | --- |
| Cn1c(Cc2ccccc2)ncc(-c2ccc(COc3c(N)ncc4c(Br)coc34)cc2)c1=O [Example 465, 5-[4-(6-Amino-3-bromofuro[3,2-c]pyridin-7-yloxymethyl)phenyl]-2-benzyl-3-methyl-3H-pyrimidin-4-one] | 5000 to 20000 | 500 to 5000 |
| C[C@@H](Oc1c(N)ncc2c(-c3cccc(NS(=O)(=O)c4cccs4)c3)coc12)c1c(Cl)ccc(F)c1Cl [Example 247, Thiophene-2-sulfonic acid (3-{6-amino-7-[(R)-1-(2,6-dichloro-3-fluorophenyl)-ethoxy]-furo[3,2-c]pyridin-3-yl}phenyl)amide] | 5000 to 20000 | 500 to 5000 |
| C[C@@H](Oc1c(N)ncc2c(-c3cnn(C4CCNCC4)c3)coc12)c1nnc2ccc(-c3cnn(C)c3)nn12 [Example 469, 7-{(1R)-1-[6-(1-methyl-1H-pyrazol-4-yl) [1,2,4]triazolo[4,3-b]pyridazin-3-yl]ethoxy}-3-[1-(piperidin-4-yl)-1H-pyrazol-4-yl]furo[3,2-c]pyridin-6-amine] | 5000 to 20000 | < 500 |
| CCN1CC=C(c2coc3c(O[C@H](C)c4c(Cl)ccc(F)c4Cl)c(N)ncc23)CC1 [Example 40, 7-[(R)-1-(2,6-Dichloro-3-fluorophenyl)-ethoxy]-3-(1-ethyl-1,2,3,6-tetrahydropyridin-4-yl)-furo[3,2-c]pyridin-6-ylamine] | < 500 | < 500 |
| CCNC(=O)c1coc2c(O[C@H](C)c3c(Cl)ccc(F)c3Cl)c(N)ncc12 [Example 179, 6-Amino-7-[(R)-1-(2,6-dichloro-3-fluorophenyl)ethoxy]furo[3,2-c]pyridine-3-carboxylic acid ethylamide] | 5000 to 20000 | < 500 |
| C[C@@H](Oc1c(N)ncc2c(C3=CCN(C(=O)N4CCOCC4)CC3)coc12)c1c(Cl)ccc(F)c1Cl [Example 31, (4-{6-Amino-7-[(R)-1-(2,6-dichloro-3-fluorophenyl)-ethoxy]-furo[3,2-c]pyridin-3-yl}-3,6-dihydro-2H-pyridin-1-yl)-morpholin-4-ylmethanone] | 500 to 5000 | 500 to 5000 |
| C[C@@H](Oc1c(N)ncc2c(C3=CCN(C(=O)c4ccc[nH]4)CC3)coc12)c1c(Cl)ccc(F)c1Cl [Example 234, (4-{6-Amino-7-[(R)-1-(2,6-dichloro-3-fluorophenyl)ethoxy]-furo[3,2-c]pyridin-3-yl}-3,6-dihydro-2H-pyridin-1-yl)-(1H-pyrrol-2-yl)-methanone] | 500 to 5000 | 500 to 5000 |
| C[C@@H](Oc1c(N)ncc2c(C(N)=O)coc12)c1c(Cl)ccc(F)c1Cl [Example 180, 6-Amino-7-[(R)-1-(2,6-dichloro-3-fluorophenyl)ethoxy]furo[3,2-c]pyridine-3-carboxamide] | 5000 to 20000 | 500 to 5000 |
| C[C@@H](Oc1c(N)ncc2c(-c3ccc(NS(C)(=O)=O)cc3)coc12)c1c(Cl)ccc(F)c1Cl [Example 76, N-(4-{6-Amino-7-[(R)-1-(2,6-dichloro-3-fluorophenyl)ethoxy]-furo[3,2-c]pyridin-3-yl}phenyl)methanesulfonamide] | 500 to 5000 | < 500 |
| C[C@@H](Oc1c(N)ncc2c(C3=CCN(C(=O)[C@H](O)C(F)(F)F)CC3)coc12)c1c(Cl)ccc(F)c1Cl [Example 269, (2S)-1-[4-{6-Amino-7-[(1R)-1-(2,6-dichloro-3-fluorophenyl)ethoxy]furo[3,2-c]pyridin-3-yl}-3,6-dihydropyridin-1(2H)-yl]-3,3,3-trifluoro-2-hydroxypropan-1-one] | 500 to 5000 | 500 to 5000 |
| COC(=O)c1ccc(C(C)Oc2c(N)ncc3c(-c4cnn(C5CCNCC5)c4)coc23)cc1 (stereo not drawn) [Example 422, 4-{1-[6-Amino-3-(1-piperidin-4-yl-1H-pyrazol-4-yl)furo[3,2-c]pyridin-7-yloxy]ethyl}benzoic acid methyl ester] | 500 to 5000 | 500 to 5000 |
| CC(Oc1c(N)ncc2c(-c3cnn(C4CCNCC4)c3)coc12)c1ccc(C#N)cc1 (stereo not drawn) [Example 394, 4-{1-[6-Amino-3-(1-piperidin-4-yl-1H-pyrazol-4-yl)furo[3,2-c]pyridin-7-yloxy]ethyl}benzonitrile] | 500 to 5000 | < 500 |
| C[C@@H](Oc1c(N)ncc2c(C(=O)NCCN(C)C)coc12)c1c(Cl)ccc(F)c1Cl [Example 190, 6-Amino-7-[(R)-1-(2,6-dichloro-3-fluorophenyl)ethoxy]furo[3,2-c]pyridine-3-carboxylic acid (3-dimethylaminoethyl)amide] | 500 to 5000 | < 500 |

Second part, the molecule after the results:

| IC50 (RON (human)) [nM] | IC50 (MET (human)) [nM] | Structure (SMILES) |
| --- | --- | --- |
| 500 to 5000 | 500 to 5000 | CCCS(=O)(=O)Nc1cccc(-c2coc3c(O[C@H](C)c4c(Cl)ccc(F)c4Cl)c(N)ncc23)c1 [Example 244, Propane-1-sulfonic acid (3-{6-amino-7-[(R)-1-(2,6-dichloro-3-fluorophenyl)ethoxy]-furo[3,2-c]pyridin-3-yl}phenyl)amide] |
| 500 to 5000 | 500 to 5000 | C=C(C)CC(Oc1c(N)ncc2c(-c3cnn(C4CCNCC4)c3)coc12)c1c(Cl)cccc1Cl (stereo not drawn) [Example 363, 7-[1-(2,6-Dichlorophenyl)-3-methylbut-3-enyloxy]-3-(1-piperidin-4-yl-1H-pyrazol-4-yl)furo[3,2-c]pyridin-6-ylamine] |
| 500 to 5000 | < 500 | C[C@@H](Oc1c(N)ncc2c(-c3cccc(C(=O)N4CCN(C)CC4)c3)coc12)c1c(Cl)ccc(F)c1Cl [Example 94, (3-{6-Amino-7-[(R)-1-(2,6-dichloro-3-fluorophenyl)ethoxy]furo[3,2-c]pyridin-3-yl}phenyl)(4-methylpiperazin-1-yl)methanone] |
| < 500 | < 500 | CC(Oc1c(N)ncc2c(-c3cnn(C4CCNCC4)c3)coc12)c1c(Cl)cc(Br)cc1Cl (stereo not drawn) [Example 442, 7-[1-(4-Bromo-2,6-dichlorophenyl)ethoxy]-3-(1-piperidin-4-yl-1H-pyrazol-4-yl)furo[3,2-c]pyridin-6-ylamine] |
| 500 to 5000 | 500 to 5000 | C[C@@H](Oc1c(N)ncc2c(C3CCN(C(N)=O)CC3)coc12)c1c(Cl)ccc(F)c1Cl [Example 195, 4-{6-Amino-7-[(R)-1-(2,6-dichloro-3-fluorophenyl)ethoxy]furo[3,2-c]pyridin-3-yl}-piperidine-1-carboxamide] |
| 500 to 5000 | < 500 | C[C@@H](Oc1c(N)ncc2c(-c3cccc(C(=O)N4CCN(CCO)CC4)c3)coc12)c1c(Cl)ccc(F)c1Cl [Example 98, (3-{6-Amino-7-[(R)-1-(2,6-dichloro-3-fluorophenyl)ethoxy]-furo[3,2-c]pyridin-3-yl}phenyl)-[4-(2-hydroxyethyl)piperazin-1-yl]methanone] |
| < 500 | < 500 | Nc1ncc2c(-c3cnn(C4CCNCC4)c3)coc2c1OC/C=C/c1c(Cl)ccc(F)c1Cl [Example 356, 7-[(E)-3-(2,6-Dichloro-3-fluorophenyl)allyloxy]-3-(1-piperidin-4-yl-1H-pyrazol-4-yl)furo[3,2-c]pyridin-6-ylamine] |
| < 500 | < 500 | Cn1c(Cc2ccccc2)ncc(-c2ccc(COc3c(N)ncc4c(-c5cnn(C6CCNCC6)c5)coc34)cc2)c1=O [Example 462, 5-{4-[6-Amino-3-(1-piperidin-4-yl-1H-pyrazol-4-yl)-furo[3,2-c]pyridin-7-yloxymethyl]-phenyl}-2-benzyl-3-methyl-3H-pyrimidin-4-one] |
